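Cultured in 96-well plates, cells were exposed to test compound for 48 hours across five concentrations. Definition used: TGI = concentration required for complete inhibition of growth.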 Where a SMILES comes first, the peptide text is derived from it. [ ]: non-standard residue; d: D form. The star is where a group is joined. hSer = N[CH](CCO)C(=O)O; Boc = CC(C)(C)OC(=O)*
What was measured:
Test in all cases: growth of human tumour cells (NCI), 48 h
MOLT-4 leukemia = tested on: MOLT-4 leukemia
MDA-N = tested on: MDA-N
CAKI-1 renal = tested on: CAKI-1 renal
UO-31 renal = tested on: UO-31 renal
SR leukemia = tested on: SR leukemia
MCF7 breast = tested on: MCF7 breast
MDA-MB-435 = tested on: MDA-MB-435
SW-620 colon = tested on: SW-620 colon
OVCAR-3 ovarian = tested on: OVCAR-3 ovarian
HOP-62 NSCLC = tested on: HOP-62 NSCLC

Row | SMILES | TGI (MOLT-4 leukemia) [µM] | TGI (MDA-N) [µM] | TGI (CAKI-1 renal) [µM] | TGI (UO-31 renal) [µM] | TGI (SR leukemia) [µM] | TGI (MCF7 breast) [µM] | TGI (MDA-MB-435) [µM] | TGI (SW-620 colon) [µM] | TGI (OVCAR-3 ovarian) [µM] | TGI (HOP-62 NSCLC) [µM]
1 | COC1/C=C\C=C(/C)C(=O)NC2=CC(=O)C(NCCCl)=C(CC(C)CC(OC)C(O)C(C)/C=C(/C)C1OC(N)=O)C2=O (stereo not given) | 5.13 | 12.3 | 8.67 | 10.6 | 1.67 | 2.19 | 3.72 | 2.55 | 8.4 | 5.91
2 | CCOC(=O)c1cc2cc(Cc3ccc4[nH]c(C(=O)OCC)cc4c3)ccc2[nH]1 | > 100 | > 100 | 34.3 | > 100 | > 100 | > 100 | > 100 | > 100 | > 100 | 23
3 | O=[N+]([O-])/C(C(Cl)=C(Cl)Cl)=C1\Nc2ccccc2O1 | 77.9 | > 100 | > 100 | 30.6 | 63.7 | > 100 | > 100 | > 100 | 63.6 | > 100
4 | COC(=O)Cc1c([C@@H]2Nc3ccccc3[C@H]2CC(=O)OC)[nH]c2ccccc12 | 68.9 | > 100 | > 100 | 81.6 | 71.4 | > 100 | 84.8 | > 100 | 42.8 | > 100
5 | O=S(=O)(O)c1cc(Cl)c(O)c2ncc(Cl)cc12 | 66.4 | > 100 | > 100 | > 100 | > 100 | > 100 | > 100 | > 100 | > 100 | > 100
6 | N#Cc1c(-c2ccco2)c2c(n(C3OC(CO)C(O)C(O)C3O)c1=S)CCCC2 (stereo not given) | > 100 | > 100 | > 100 |  | > 100 | > 100 | > 100 |  | > 100 | > 100
7 | CC1C(c2ccc(N(C)C)cc2)c2cc3c(cc2OC1N1CCCC1)OCO3 (stereo not given) | > 100 | 46.9 | > 100 | > 100 | > 100 | > 31.6 | 60.4 | > 100 | > 100 | > 78.6
8 | c1cc(-c2cscc2-c2ccsc2)cs1 | > 100 | > 100 | > 100 | > 100 | > 100 | > 100 | > 100 | > 100 | 89.8 | > 100
9 | O=S(=O)(O)c1ccc(NN(c2c(O)ccc3ccccc23)S(=O)(=O)O)cc1 | > 100 | > 100 | > 100 | > 100 | > 100 | > 100 | > 100 | > 100 | > 100 | > 100
10 | COc1ccc(C2SCC(=O)N2N=C2NC(=O)CC(=O)N2)cc1 (stereo not given) | > 100 | > 100 | > 100 | > 100 | > 100 | > 100 | > 100 | > 100 | > 100 | > 100
11 | C[N+]1(C)CC=C(N2CCOCC2)CC1 | > 10 | > 10 | > 10 | > 10 | > 10 | > 10 | > 10 | > 10 | > 10 | > 10
12 | CCOC(=O)c1nc2c3c(ncn2n1)Oc1c(c(-c2ccccc2)nn1-c1ccccc1)C3c1ccc(OC)c(OC)c1 (stereo not given) | > 100 | > 100 | > 100 | > 100 | > 100 | > 100 | > 100 | > 100 | > 100 | 48.5
13 | Nc1c(Br)cc(-c2cc(Br)c(N)c(Br)c2)cc1Br | > 100 | > 100 | > 100 | > 100 | > 100 | > 100 | > 100 | > 100 | > 100 | > 100
14 | COc1ccc(CN2C(=O)CCC/C=C\[C@H]2CI)cc1 | 25.6 | 25.8 | 21.9 | 23.8 | > 100 | 22.5 | 25.2 | 23.8 | 23.7 | 31.1
15 | COc1ccc2c(O)c3[n+](cc2c1OC)CCc1cc2c(cc1-3)OCO2 | > 100 | > 100 | > 100 |  | > 100 | > 100 | 69.3 | > 100 | > 100 | > 100
16 | COCCC(NC(=O)C(CC(C)C)NC(=O)OC(C)(C)C)C(N)=O (stereo not drawn) (Boc-Leu-[hSer](Me)-NH2; configuration not given here) | > 100 | > 100 | > 100 | > 100 | > 100 | > 100 | > 100 | > 100 | > 100 | > 100
17 | O=c1c2cc([N+](=O)[O-])ccc2n2n1Cc1ccccc1CC2 | > 100 | > 100 | > 100 | > 100 | > 100 | > 100 | > 100 | > 100 | > 100 | > 100
18 | O=C(Cc1ccc(Cl)c(Cl)c1)NCCCN1CCN(CCCN2CCCCC2)CC1 | 28.8 | 6.31 | 41.3 | 3.63 | 29 | 34.2 | 4.11 | 46.7 | 80.7 | 32.1
19 | CCOC(=O)C1(Cc2ccc(C)cc2)Cc2ccc(C)cc2C1=O (stereo not given) | 27.7 | 6.42 | > 100 | > 100 | 68.8 | 28.3 | 12.2 | > 100 | > 100 | > 100
20 | O=C(CCSC(CC(=O)c1ccc(Cl)cc1)c1ccc(Cl)cc1)Nc1ccc(Cl)cc1 (stereo not given) | 11.5 | 26 | 57.2 | 26.9 | 9.57 | 15.3 | 25.6 | 10.5 | 27.1 | 29.1
21 | CN1CC(c2ccccc2)=Cc2c1ccc(N)c2N=N | > 100 | > 100 | 67.9 | > 100 | > 100 | > 100 | > 100 | > 100 | > 100 | > 100
22 | O=C1N[C@H]2c3c(Cl)sc(Cl)c3C(=O)[C@H]2O1 | 5.11 | > 57.5 | 49.5 | 38.3 | 5.81 | > 100 | 36 | 7.71 | 36.8 | 42
23 | Cc1c(C)c(C)c(-n2c(=O)n(C)c(=O)n2C(C)(C)C)c(C)c1C | > 100 | > 100 | > 100 | > 100 | > 100 | > 100 | > 100 | > 100 | > 100 | 
24 | COC(=O)C1Cc2c(C)cccc2C1=O (stereo not given) | > 100 | > 100 | > 100 | > 100 | > 100 | > 100 | > 100 | > 100 | > 100 | > 100
25 | Cc1ncc([N+](=O)[O-])n1CCN(C)CCCCn1ccnc1[N+](=O)[O-] | > 100 | > 100 | > 100 | > 100 | > 100 | > 100 | > 100 | > 100 | > 100 | > 100
26 | COc1ccc(C2CC(c3cc4c(C)c(C(=O)c5ccccc5)oc4cc3O)=Nc3ccccc3S2)cc1OC (stereo not given) | > 100 | > 61.6 | > 100 | > 100 | > 100 | > 100 | 2.05 | > 100 | > 100 | > 34.3
27 | CO/C(=N\N=C(/C)C(F)(F)F)c1ccncc1 | > 100 | > 100 | > 100 | > 100 | > 100 | > 100 | > 100 |  | > 100 | > 100
28 | CCC1(O)C=CC(=O)C=C1 | > 100 | > 100 | > 100 | 36.7 | > 100 | > 100 | > 100 | > 100 | 69.6 | 67.5
29 | C1=C2SSC3=CC=C(SSc4ccc(s4)SSC4=CC=C(SSC(=C1)S2)S4)S3 | > 100 | > 100 | > 100 | > 100 | > 100 | > 100 | > 100 | > 100 | > 100 | > 100
